According to the supplement of paper PMC13380429:

What was measured:
Details in all cases: 72 h
HepG2 [1] = experiment: drug sensitivity score (DSS) for viability; higher = more toxic; extreme values may be limits of the assay
U2OS [2] = experiment: as above
Vero E6 [3] = experiment: as above
Caco-2 [4] = experiment: as above
Calu-3 [5] = experiment: as above
HepG2 [6] = experiment: relative viability EC50 (midpoint between 100% and the lowest measured viability); higher = less toxic
U2OS [7] = experiment: as above
Vero E6 [8] = experiment: as above
Caco-2 [9] = experiment: as above
Calu-3 [10] = experiment: as above
HepG2 [11] = experiment: cell viability relative to DMSO; higher = less toxic
U2OS [12] = experiment: as above
Vero E6 [13] = experiment: as above
Caco-2 [14] = experiment: as above
Calu-3 [15] = experiment: as above

Structure (SMILES) | drug sensitivity score (HepG2 [1]) | drug sensitivity score (U2OS [2]) | drug sensitivity score (Vero E6 [3]) | drug sensitivity score (Caco-2 [4]) | drug sensitivity score (Calu-3 [5]) | relative viability EC50 (HepG2 [6]) | relative viability EC50 (U2OS [7]) | relative viability EC50 (Vero E6 [8]) | relative viability EC50 (Caco-2 [9]) | relative viability EC50 (Calu-3 [10]) | cell viability (HepG2 [11]; 1 nM) | cell viability (HepG2 [11]; 10 nM) | cell viability (HepG2 [11]; 100 nM) | cell viability (HepG2 [11]; 1000 nM) | cell viability (HepG2 [11]; 10000 nM) | cell viability (U2OS [12]; 1 nM) | cell viability (U2OS [12]; 10 nM) | cell viability (U2OS [12]; 100 nM) | cell viability (U2OS [12]; 1000 nM) | cell viability (U2OS [12]; 10000 nM) | cell viability (Vero E6 [13]; 1 nM) | cell viability (Vero E6 [13]; 10 nM) | cell viability (Vero E6 [13]; 100 nM) | cell viability (Vero E6 [13]; 1000 nM) | cell viability (Vero E6 [13]; 10000 nM) | cell viability (Caco-2 [14]; 1 nM) | cell viability (Caco-2 [14]; 10 nM) | cell viability (Caco-2 [14]; 100 nM) | cell viability (Caco-2 [14]; 1000 nM) | cell viability (Caco-2 [14]; 10000 nM) | cell viability (Calu-3 [15]; 1 nM) | cell viability (Calu-3 [15]; 10 nM) | cell viability (Calu-3 [15]; 100 nM) | cell viability (Calu-3 [15]; 1000 nM) | cell viability (Calu-3 [15]; 10000 nM)
Cc1cc(NC(=O)Nc2ccc(N(C)C)cc2)c2cc(F)cc(F)c2n1 | 0.8 | 0 | 0 | 0.1 | 0 | > 10 µM | > 10 µM | > 10 µM | > 10 µM | > 10 µM | 103% | 93.7% | 96.4% | 93.1% | 80.1% | 98.4% | 104% | 99.8% | 103% | 91.9% | 101% | 95.8% | 100% | 97.9% | 100% | 100% | 103% | 99.8% | 89.5% | 91.6% | 95.2% | 98.8% | 101% | 105% | 94.7%
O=C1NC(=O)C(c2ccccc2[N+](=O)[O-])=C1Nc1ccc(O)c(Cl)c1 | 0 | 0 | 0 | 0 | 0 | > 10 µM | > 10 µM | > 10 µM | > 10 µM | > 10 µM | 102% | 97.1% | 95.5% | 104% | 100% | 93.5% | 94.9% | 101% | 103% | 104% | 101% | 103% | 98.8% | 105% | 105% | 98.1% | 94.3% | 104% | 95.7% | 107% | 91.4% | 91.9% | 94.4% | 85.9% | 88.9%
O=S(=O)(c1ccccc1)c1cnc2c(N3CCNCC3)cccc2c1 | 0 | 0 | 0 | 0 | 0 | > 10 µM | > 10 µM | > 10 µM | > 10 µM | > 10 µM | 93.8% | 105% | 97.1% | 108% | 87.2% | 102% | 96.8% | 102% | 99% | 97% | 93.3% | 97.4% | 95% | 97.3% | 106% | 95.9% | 101% | 102% | 94.8% | 101% | 90.2% | 96.5% | 104% | 96.7% | 98.4%
